Experimental findings from patent US6576620B2, “Method of identifying partial adenosine A1 receptor agonists” (CV Therapeutics, Inc., priority 1999, dated 2003) are described below.

Experiment [1] deals with guinea pig isolated heart. Nature of the experiment: A-V nodal conduction time / S-H interval, isolated perfused heart. The following applies: for S-H interval Efficacy: Table 5, 2759 = CVT-2759; for EC50: Cavia porcellus. On the procedure: This method evaluates the potencies of compounds to cause coronary vasodilation (A2A AdoR response) and to prolong A-V nodal conduction time (A1 AdoR response).
Rats and guinea pigs, of either sex weighing from 230 to 260 grams and 300 to 350 grams, respectively, were used in this study. Animals were anesthetized by peritoneal injection of a cocktail containing ketamine and xylazine (ketamine 100 mg, xylazine 20 mg/ml). The chest was opened and the heart quickly removed. The heart was briefly rinse in ice-cold Krebs-Henseleit solution (see below), and the aorta cannulated. The heart was then perfused at a flow rate of 10 ml/min with modified Krebs-Henseleit (K-H) solution containing NaCl 117.9, KCl 4.5, CaCl2 2.5, MgSO4 1.18, KH2PO4 1.18, pyruvate 2.0 mmol. The K-H solution (pH 7.4) was gassed continuously with 95% O2 and 5% CO2 and warmed to 35±0.50° C. The heart was electrically paced at a fixed cycle length of […] (250 beats/min) using a bipolar electrode place on the left atrium. The electrical stimuli were generated by a Grass stimulator (Model S48, W. Warwick, R.I.) and delivered through a Stimuli Isolation Unit (Model SIU5, Astro-Med, Inc., NY) as square-wave pulses of 3-msec in duration and amplitude of at least twice the threshold intensity.
A1 adenosine receptor-mediated depression of A-V nodal conduction time (negative dromotropic effect) was measured. Atrial and ventricular surface electrograms in rats and His bundle electrogram in guinea pigs, were recorded during constant atrial pacing.
The effects of compounds on coronary conductance (A2A effect) and atrioventricular conduction time or stimulus-to-His-bundle (S-H) interval (A1 effect) was then determined. Hearts were instrumented for continuous recording of coronary perfusion pressure (A2A response) and atrioventricular (A-V) conduction time or S-H interval (A1 response). In each experiment, concentration-response relationship of compounds to increase coronary conductance and to prolong A-V conduction time or S-H interval was determined. After control measurements of CPP and A-V conduction time or S-H interval were made, progressive higher concentrations of the compound studied was administered until maximal coronary vasodilation and A-V nodal conduction time or S-H interval prolongation were achieved.
Guinea pigs (Hartley) of either sex weighing 300-350 g were anaesthetized with methoxyflurane and killed by decapitation. The chest was cut open and the heart was removed quickly and rinsed in ice-cold modified Krebs-Henseleit (K-H) solution. The contents of the modified K-H solution were (in mM): NaCl 117.9, KCl 4.8, CaCl2 2.5, MgSO2 1.18, KH2PO4 1.2, Na2 EDTA 0.5, ascorbic acid 0.14, dextrose 5.5, pyruvic acid (sodium salt) 2.0, and NaHCO3 25. The K-H solution was continuously gassed with 95% oxygen and 5% CO2, and the pH was adjusted to a value of 7.4. To perfuse the heart by the Langendorff method, the transected aorta was slid onto a glass cannula and secured by a ligature. Retrograde perfusion of the aorta was initiated immediately at a constant flow of 10 ml min-′ with modified K-H solution warmed to 36.0±0.5° C. A side port in the cannula was used to connect the perfusion line to a Gould pressure transducer for measurement of coronary perfusion pressure. Coronary perfusion pressure was continuously recorded on a strip chart (Gould RS3400, Cleveland, Ohio) throughout each experiment. Coronary conductance (in ml min^−1 mmHg^−1) was calculated as the ratio of coronary flow (10 ml min^−1) to perfusion pressure (mm Hg). To facilitate the exit of fluid from the left ventricle, the leaflets of the mitral valve were trimmed with fine spring-handled scissors. When appropriate, hearts were paced at a constant rate using external electrodes. […]

For experiment [2], the system named is Adenosine A1 receptor. The experiment is described as follows: A1-agonist stimulated [35S]GTPγS binding to G proteins. Type of experiment: biochemical. Conditions: for GTPγS (% of CPA): Table 5; for GTPγS: Table 1, compounds of Example 2, normalized to the full agonist CPA. How it is done:
At the end of the incubation, each suspension was filtered and the retained radioactivity determined as described above.
For orientation: GTPγS resists hydrolysis and so accumulates on activated G proteins.

In experiment [3] the target is T1, Adenosine A1 receptor (Cavia porcellus, UniProt P47745).
T1 construct: from tissue; host or cells: guinea pig forebrain membranes
T1 sequence (P47745 1-326): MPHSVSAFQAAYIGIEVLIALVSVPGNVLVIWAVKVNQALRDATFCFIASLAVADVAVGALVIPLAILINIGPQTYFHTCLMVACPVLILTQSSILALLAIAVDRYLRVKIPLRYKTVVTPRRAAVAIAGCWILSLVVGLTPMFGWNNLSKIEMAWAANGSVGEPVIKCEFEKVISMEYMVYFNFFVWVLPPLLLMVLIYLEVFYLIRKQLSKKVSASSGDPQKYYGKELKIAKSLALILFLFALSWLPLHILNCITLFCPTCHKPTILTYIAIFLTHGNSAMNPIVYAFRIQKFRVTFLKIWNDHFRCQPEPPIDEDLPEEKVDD
Nature of the experiment: Affinity binding (Ki) of Tables 4 and 5. How it is done: The binding affinity of a compound is evaluated in a competitive binding assay.

Where [4] appears, read: Table 4, A-V nodal conduction time, read-out: EC50 A-V NCT.

Values joined by “and” are separate entries in the source; they are usually repeats but may differ in a detail not shown here. Equal entries are not always repeated. Where two headings read alike, the source gives them in different places.

One may read the Ki as the dissociation constant of the complex between target and ligand, obtained from inhibition or displacement. The EC50 is the concentration at which the effect is half-maximal.

As to `CCCn1c(=O)c2[nH]c(C3CCCC3)nc2n(CCC)c1=O` [CPX, 8-cyclopentyl-1,3-dipropylxanthine, reference compound], in experiment [1] (50 nM CPX in continued presence of 10 μM Compound 6 of Example 2 (58±2 msec before CPX)), the S-H interval was 50 ± 2 ms.

`O[C@@H]1[C@H](O)[C@@H](CSc2c(Cl)cccc2Cl)O[C@H]1n1cnc2c(N[C@@H]3CCOC3)ncnc21` [Compound 19 of Example 4, 2-{6-[((3R)oxolan-3-yl)amino]purin-9-yl}(4S,5S,2R,3R)-5-[(2,6-dichlorophenylthio)methyl]oxolane-3,4-diol]: the “S-H interval Efficacy” value in experiment [1] was “Full (>2759)”. For the same compound, in experiment [2], the “GTPγS (% of CPA)” value is recorded as 89 % of CPA. Besides, the Ki in experiment [3] (Table 5, read-out: Ki) is 1340 nM.

On to `O[C@@H]1[C@H](O)[C@@H](CSc2cccc(F)c2)O[C@H]1n1cnc2c(N[C@@H]3CCOC3)ncnc21` [Compound 20 of Example 4, 2-{6-[((3R)oxolan-3-yl)amino]purin-9-yl}(4S,5S,2R,3R)-5-[(3-fluorophenylthio)methyl]oxolane-3,4-diol], for which, in experiment [1], the “S-H interval Efficacy” value is on record as “Partial (= 2759)”. The “GTPγS (% of CPA)” value in experiment [2] is 84.2 % of CPA. Moreover, the Ki in experiment [3] (Table 5, read-out: Ki) came out at 1560 nM.

Take `O[C@@H]1[C@H](O)[C@@H](CSc2ccccc2F)O[C@H]1n1cnc2c(N[C@@H]3CCOC3)ncnc21` [Compound 21 of Example 4, 2-{6-[((3R)oxolan-3-yl)amino]purin-9-yl}(4S,5S,2R,3R)-5-[(2-fluorophenylthio)methyl]oxolane-3,4-diol]: the EC50 was found to be 1200 nM in experiment [1] (setting [4]) and 1260 nM in experiment [1] (Table 5, S-H interval, read-out: EC50). In addition, the “S-H interval Efficacy” value in experiment [1] was “Partial (>2759)”. In addition, in experiment [2], the “GTPγS (% of CPA)” value is recorded as 72 % of CPA. In addition, the Ki is 600 nM in experiment [3] (Table 4, read-out: Ki low); 372 nM and 221 nM in experiment [3] (Table 5, read-out: Ki).

Turning to `CC(C)NC(=S)OC[C@H]1O[C@@H](n2cnc3c(N[C@@H]4CCOC4)ncnc32)[C@H](O)[C@@H]1O` [Compound 47 of Example 2, 2-{6-[((3R)oxolan-3-yl)amino]purin-9-yl}(4S,2R,3R,5R)-5-({[(methylethyl)amino]thioxomethoxy}methyl)oxolane-3,4-diol], the Ki in experiment [3] (Table 5, read-out: Ki) is 1370 nM.

With `O[C@@H]1[C@H](O)[C@@H](COC(=S)N[C@@H]2CCC[C@H]2O)O[C@H]1n1cnc2c(N[C@@H]3CCOC3)ncnc21` [Compound 63 of Example 2, 2-{6-[((3R)oxolan-3-yl)amino]purin-9-yl}(4S,2R,3R,5R)-5-({[((1R,2R)-2-hydroxycyclopentyl)amino]thioxomethoxy}methyl)oxolane-3,4-diol], the GTPγS in experiment [2] stood at 100%.

For the compound `O[C@@H]1[C@H](O)[C@@H](COC(=S)N[C@H]2CCC[C@@H]2O)O[C@H]1n1cnc2c(N[C@@H]3CCOC3)ncnc21` [Compound 64 of Example 2, 2-{6-[((3R)oxolan-3-yl)amino]purin-9-yl}(4S,2R,3R,5R)-5-({[((1S,2S)-2-hydroxycyclopentyl)amino]thioxomethoxy}methyl)oxolane-3,4-diol], the GTPγS in experiment [2] stood at 99%.

For `O=C(NC1CCCC1C(=O)O)OC[C@H]1O[C@@H](n2cnc3c(N[C@@H]4CCOC4)ncnc32)[C@H](O)[C@@H]1O` (stereo partly drawn) [Compound 65 of Example 2], the GTPγS in experiment [2] was 81%.

In experiment [2], `O=C(O)CCNC(=O)OC[C@H]1O[C@@H](n2cnc3c(N[C@@H]4CCOC4)ncnc32)[C@H](O)[C@@H]1O` [Compound 67 of Example 2, 3-{[(5-{6-[((3R)oxolan-3-yl)amino]purin-9-yl}(3S,2R,4R,5R)-3,4 dihydroxyoxolan-2-yl)methoxy]carbonylamino}propanoic acid] had a GTPγS of 59%.

In experiment [2], `O=C(O)CNC(=O)OC[C@H]1O[C@@H](n2cnc3c(N[C@@H]4CCOC4)ncnc32)[C@H](O)[C@@H]1O` [Compound 68 of Example 2, 2-{[(5-{6-[((3R)oxolan-3-yl)amino]purin-9-yl}(3S,2R,4R,5R)-3,4 dihydroxyoxolan-2-yl)methoxy]carbonylamino}acetic acid] had a GTPγS of 76%.

In the case of `COC(=S)NC[C@H]1O[C@@H](n2cnc3c(N[C@@H]4CCOC4)ncnc32)[C@H](O)[C@@H]1O` [Compound 71 of Example 2], the GTPγS in experiment [2] was determined as 98%.

The compound `O=C(NC1CCCC1)SC[C@H]1O[C@@H](n2cnc3c(N[C@@H]4CCOC4)ncnc32)[C@H](O)[C@@H]1O` [Compound 73 of Example 2, [(5-{6-[((3R)oxolan-3-yl)amino]purin-9-yl}(2S,3S,4R,5R)-3,4-dihydroxyoxolan-2-yl)methythio]-N-cyclopentylcarboxamide] returned a GTPγS in experiment [2] of 109%.

Take `CNC(=S)SC[C@H]1O[C@@H](n2cnc3c(N[C@@H]4CCOC4)ncnc32)[C@H](O)[C@@H]1O` [Compound 74 of Example 2, 2-{6-[((3R)oxolan-3-yl)amino]purin-9-yl}(4S,5S,2R,3R)-5-{[(methylamino)thioxomethylthio]methyl}oxolane-3,4-diol]: in experiment [2], the GTPγS was 95%.

`O[C@@H]1[C@H](O)[C@@H](CSC(=S)NC2CCCC2)O[C@H]1n1cnc2c(N[C@@H]3CCOC3)ncnc21` [Compound 75 of Example 2] gave a GTPγS in experiment [2] of 91%.

`CNC(=S)NC[C@H]1O[C@@H](n2cnc3c(N[C@@H]4CCOC4)ncnc32)[C@H](O)[C@@H]1O` [Compound 77 of Example 2, 2-{6-[((3R)oxolan-3-yl)amino]purin-9-yl}(4S,2R,3R,5R)-5-({[(methylamino)thioxomethyl]amino}methyl)oxolane-3,4-diol]: in experiment [2], the GTPγS is listed as 101%.

Turning to `O[C@@H]1[C@H](O)[C@@H](CNC(=S)NC2CCCC2)O[C@H]1n1cnc2c(N[C@@H]3CCOC3)ncnc21` [Compound 78 of Example 2, 2-{6-[((3R)oxolan-3-yl)amino]purin-9-yl}(4S,2R,3R,5R)-5-({[(cyclopentylamino)thioxomethyl]amino}methyl)oxolane-3,4-diol], in experiment [2], the GTPγS amounted to 95%.

Take `O=c1occn1C[C@H]1OC(n2cnc3c(N[C@@H]4CCOC4)ncnc32)[C@H](O)[C@@H]1O` (stereo partly drawn) [Compound 80 of Example 2, 3-[(5-{6-[((3R)oxolan-3-yl)amino]purin-9-yl}(3S,2R,4R)-3,4-dihydroxyoxolan-2-yl)methyl]-1,3-oxazolin-2-one]: the GTPγS in experiment [2] was 80%.

Take `CNC(=O)OC[C@H]1O[C@@H](n2cnc3c(N[C@@H]4CCOC4)ncnc32)[C@H](O)[C@@H]1O` [compound 6]: in experiment [1] (setting [4]), the EC50 amounted to 3100 nM. Moreover, the Ki in experiment [3] (Table 4, read-out: Ki low) stood at 2600 nM.

For the compound `CCCCNC(=O)OCC1OC(n2cnc3c(N[C@@H]4CCOC4)ncnc32)C(O)C1O` (stereo partly drawn) [compound 27], the Ki in experiment [3] (Table 5, read-out: Ki) worked out at 9630 nM.

Regarding “N-[(5-{6-[((3R)oxolan-3-yl)amino]purin-9-yl}(3S,2R,4R,5R)-3,4-dihydroxyoxolan-2-yl)methy]cyclopentyloxycarboxamide [Compound 70 of Example 2]”, the GTPγS in experiment [2] was 76%.
